Results from US20080306146A1, “Dosing Regimens for Cox-2 Inhibitor” (AMOREPACIFIC CORPORATION, priority 2005, published 2008).
Each block holds one molecule with its values, some of them ahead of it.

Legend:
[1] = system: carrageenan-induced thermal hyperalgesia in male SD rats; conditions: orally administered; cited from earlier work
clinical = conditions: male, human, plasma, po
[2] = system: adjuvant-induced arthritis in male Lewis rats; conditions: cited from earlier work
[3] = plasma pharmacokinetics in healthy male subjects, multiple dose (loading plus daily maintenance dose, 8 days); format: in vivo, human
Excerpt: By assuming an elimination half-life of 4 to 5 days for Compound A, were designed multiple dosing regimens by which steady state plasma concentrations of Compound A are rapidly reached and maintained throughout the dosing period. […] Although only two examples of dosing regimens involving a combination of loading dose and daily maintenance dose are provided in Table 3, it is not intended to limit the dosing regimens of this invention only to those provided in Table 3. Obviously, variations in the loading dose and consequent the daily maintenance dose levels may be conceived depending on indications of subjects. For example a loading dose of 2 mg may be used in combination with a daily maintenance dose of about 0.25 mg/day.
The dosing regimens of the instant invention were tested in healthy human male subjects. Table 4 provides mean pre-dose plasma levels of Compound A following oral administrations of capsule drug products containing Compound A according to either Regimen A or Regimen B of Table 3 daily once for 8 days. In both dosing regimens, the pre-dose plasma levels remained almost constant.

[4] = plasma pharmacokinetics in healthy male subjects, single oral dose of capsule drug product

half-life (clinical): 77 to 135 h
Cmax (clinical; 1 mg): 1.65 ng/mL
Cmax (clinical; 5 mg): 7.82 ng/mL
Cmax (clinical; 8 mg): 13.3 ng/mL
Cmax (clinical; 12 mg): 18.1 ng/mL
Mean Pre-dose Plasma Level ([3]; Regimen A (3 mg loading, 0.4 mg/day maintenance), Day 2): 3.8 ng/mL
drug accumulation from the multiple dosings ([3]; Regimen A and Regimen B, daily once for 8 days): no suggestions of drug accumulation
Mean Pre-dose Plasma Level ([3]; Regimen A, Day 1 (before loading dose)): 0 ng/mL
Mean Pre-dose Plasma Level ([3]; Regimen A, Day 3): 4.2 ng/mL
Mean Pre-dose Plasma Level ([3]; Regimen A, Day 4): 4.0 ng/mL
Mean Pre-dose Plasma Level ([3]; Regimen A, Day 5): 4.7 ng/mL
Mean Pre-dose Plasma Level ([3]; Regimen A, Day 6): 4.5 ng/mL
Mean Pre-dose Plasma Level ([3]; Regimen A, Day 7): 3.6 ng/mL
Mean Pre-dose Plasma Level ([3]; Regimen A, Day 8): 3.6 ng/mL
Mean Pre-dose Plasma Level ([3]; Regimen A, Day 9 (no dose)): 4.0 ng/mL
Mean Pre-dose Plasma Level ([3]; Regimen B (6 mg loading, 0.8 mg/day maintenance), Day 2): 6.2 ng/mL
Mean Pre-dose Plasma Level ([3]; Regimen B, Day 1 (before loading dose)): 0 ng/mL
Mean Pre-dose Plasma Level ([3]; Regimen B, Day 3): 6.2 ng/mL
Mean Pre-dose Plasma Level ([3]; Regimen B, Day 4): 6.3 ng/mL
Mean Pre-dose Plasma Level ([3]; Regimen B, Day 5): 6.5 ng/mL
Mean Pre-dose Plasma Level ([3]; Regimen B, Day 6): 6.3 ng/mL
Mean Pre-dose Plasma Level ([3]; Regimen B, Day 7): 6.6 ng/mL
Mean Pre-dose Plasma Level ([3]; Regimen B, Day 8): 7.1 ng/mL
Mean Pre-dose Plasma Level ([3]; Regimen B, Day 9 (no dose)): 6.6 ng/mL
half-life ([3]; male, human, plasma, oral, Regimen A and Regimen B, after 8 days of daily once dosing, read-out: mean elimination half-lives following the last dosing): 96 to 120 h
Terminal Elimination Half-life ([4]; single oral dose 5 mg (Group 2)): 118 ± 66 h
Terminal Elimination Half-life ([4]; single oral dose 8 mg (Group 3)): 77 ± 8 h
Terminal Elimination Half-life ([4]; single oral dose 12 mg (Group 4)): 135 ± 24 h
Structure (SMILES): CC1(C)OC(c2ccc(S(N)(=O)=O)cc2)=C(c2cccc(F)c2)C1=O [Compound A, 5-{4-(aminosulfonyl)phenyl}-2,2-dimethyl-4-(3-fluorophenyl)-3(2H)furanone]
ED50 in carrageenan-induced thermal hyperalgesia [1]: 0.25 mg/kg
ED50 by adjuvant-induced arthritis [2]: 0.1 mg/kg/day
dose dependence of Cmax ([4]; single oral dose 1 to 12 mg): increased essentially dose proportionally

Structure (SMILES): COc1ccc2c(c1)c(CC(=O)O)c(C)n2C(=O)c1ccc(Cl)cc1 [indomethacin, reference compound]
ED50 in carrageenan-induced thermal hyperalgesia [1]: ~1.0 mg/kg
ED50 by adjuvant-induced arthritis [2]: 0.3 mg/kg/day
